Reference: patent US6841563B1, “Aryloxy propanolamines for improving livestock production” (Eli Lilly and Company, priority 1999, dated 2005)
Marks after values point to notes of the source that are not given here.

Assays:
[1] = Weight gain, feed efficiency and carcass characteristics, last 14 days of growing period in broiler chickens; type: in vivo
From the text: Approximately 1500 Peterson-Hubbard, day-old, male chicks were used in a randomized, complete-block design with 4 treatments (Control, Clenbuterol at 1 PPM, and Compound 6 at 3 and 15 PPM (mg/kg feed)). The testing facility contained 36 pens, divided equally into 6 blocks. Treatments were randomly allotted to pens within each block. Each treatment consisted of 6 pens with 10 birds per pen.
Day-of-age birds were obtained from Pine Manor Hatchery in Goshen, Ind. Approximately 40 birds per pen were set at random upon receipt. On day 30 of the growout period, all birds were weighed and the 15 birds closest to the block mean were selected. These birds were allowed to acclimate until day 35 of age. On that day, all remaining birds were weighed again, and the 10 birds/pen closest to the block mean were chosen for the treatment phase. Birds were provided ad libitum access to feed and water throughout the trial. All birds were fed a 23% crude protein corn-soy ration from day 1 until day 18 of age. The feed was changed to a 20% crude protein corn-soy ration from day 18 to day 49. The treatment feed was mixed using the same 20% crude protein basal ration. Treatments were administered in the feed from day 35 through day 49. Feed consumption was calculated over the entire 14-day treatment period. Birds were weighed at trial completion (day 49), and transported to Purdue University, West Lafayette, Ind. 47907, U.S.A. meat laboratory for slaughter and carcass measurements on day 50. Weights of the hot carcass, fat pad, and viscera were taken on all animals.

[2] = Intravenous administration to cattle: serum non-esterified fatty acid (NEFA) and serum urea nitrogen (SUN) levels; type: in vivo; conditions: for ΔNEFA 24 Hours / change in vivo at 0.04 mg/kg: 40 μg per kilogram i.v. twice; for ΔNEFA 24 Hours: T+24 h minus T=0; for ΔNEFA 24 Hours / ΔNEFA 15 Min. / change in vivo at 0.04 mg/kg: mean of five animals; for ΔNEFA 15 Min.: 40 μg per kilogram i.v., T+15 min minus T=0; for change in vivo at 0.04 mg/kg: Bos taurus, iv, 24 hours post treatment vs baseline T=0, read-out: Δ% SUN 24 Hours; for lipolytic effects (non-esterified fatty acid levels): fifteen minutes and twenty-four hours after administration; for anabolic effects (change in serum urea nitrogen levels): twenty-four hours after administration, compared with the corresponding carboxamide regioisomers
From the text: Intravenous administration of the compounds of the present invention to cattle increases serum non-esterified fatty acids and decreases serum urea. In this Example, angus/angus cross calves, both heifers and steers, weighing approximately 282 pounds (128 kg) initially to 788 pounds (357.8 kg) over the course of these studies, were placed in pens at 5 calves per pen. The cattle were acclimated to the pens for at least 1 week prior to initiating the study.
Calves were fed ad libitum twice daily, (approximately 6-15 pounds (2.7-6.8 kg)/day). During the treatment day, in the A.M. period, the feeding times were staggered to ensure that all animals were fed approximately one hour before the treatments were administered. During the P.M. treatment period, the cattle were fed immediately after receiving the P.M. injection.
After taking a pretreatment (T=O) blood sample from each animal, a 40 μg per kilogram dose of a test compound was administered intravenously in the jugular vein at 6:30 A.M. and 2:30 P.M. Each test compound was administered at a concentration of 1.00-1.25 mg/ml in a treatment vehicle that was a 50/50 mixture of polyethylene glycol 200/water.
A blood sample was taken at fifteen minutes post-treatment (T+15 min). The calves were returned to their respective pens until their next treatment, approximately eight hours later. The next morning at 6:30 A.M. a blood sample was collected from all calves at 24 hours post-treatment (T+24 h). All blood samples were analyzed for the non-esterified fatty acid level (NEFA) and serum urea nitrogen level (SUN). The post-treatment NEFA and SUN levels in each individual animal were compared with the levels found before treatment.

SMILES	ΔNEFA 24 Hours [2] [µmol/L]	ΔNEFA 15 Min. [2] [µmol/L]	change in vivo at 0.04 mg/kg [2] [%]	further results
CC(C)(C)NCC(O)c1cc(Cl)c(N)c(Cl)c1 (stereo not drawn) [Clenbuterol, reference compound]	–	–	–	Dressing Percentage ([1]; 1 PPM in feed, day 35-49): 72.77**; Fat Pad Weight ([1]; 1 PPM in feed, day 35-49): 26.86 g; Final Weight ([1]; 1 PPM in feed, day 35-49): 3.02 kg; Hot Carcass Weights ([1]; 1 PPM in feed, day 35-49): 2191.64** g; Pen Feed Intake ([1]; 1 PPM in feed, day 35-49): 25.20 kg; Total 14 day Weight Gain ([1]; 1 PPM in feed, day 35-49): 1.29 kg; Viscera Weight ([1]; 1 PPM in feed, day 35-49): 285.45 g; Feed Efficiency F/G ([1]; 1 PPM in feed, day 35-49, pen feed intake/total pen weight): 1.99; increase in weight gain over control ([1]; 1 PPM, 14-day treatment period, P=0.1430): 2.38%; improvement of feed efficiency versus control ([1]; 1 PPM, 14-day treatment period, P=0.7320): 0.50%; increase in hot carcass weights compared to control ([1]; 1 PPM, P=0.0027): 3.25%; decrease in viscera weights with respect to control ([1]; 1 PPM, P=0.7215): 0.66%
CC(C)(Cc1ccc(Oc2ccc(C(N)=O)cn2)cc1)NC[C@H](O)COc1cccc2[nH]ncc12 [Compound 1]	820.9	554.4	-28.7	–
CC(C)(Cc1ccc(Oc2ncccc2C(N)=O)cc1)NC[C@H](O)COc1cccc2[nH]ncc12 [Compound 2]	742.4	141.2	-39.3	lipolytic effects (non-esterified fatty acid levels) [2]: modest lipolytic effects; anabolic effects (change in serum urea nitrogen levels) [2]: significantly greater
CC(C)(Cc1ccc(Oc2ccc(C(N)=O)cn2)cc1)NC[C@H](O)COc1cccc2[nH]c(=S)[nH]c12 [Compound 3]	200.2	379.4	-38.2	–
CC(C)(Cc1ccc(Oc2ncccc2C(N)=O)cc1)NC[C@H](O)COc1cccc2[nH]c(=S)[nH]c12 [Compound 4]	265.3	283.1	-57	lipolytic effects (non-esterified fatty acid levels) [2]: modest lipolytic effects; anabolic effects (change in serum urea nitrogen levels) [2]: significantly greater
CC(C)(Cc1ccc(Oc2ccc(C(N)=O)cn2)cc1)NC[C@H](O)COc1cccc2[nH]ccc12 [Compound 5]	-5.6	170.8	-28.6	–
CC(C)(Cc1ccc(Oc2ccc(C(N)=O)cn2)cc1)NC[C@H](O)COc1cccc2[nH]c(=O)[nH]c12 [Compound 7]	-4.2	134.1	-9.7	–
CC(C)(Cc1ccc(Oc2ncccc2C(N)=O)cc1)NC[C@H](O)COc1cccc2[nH]c(=O)[nH]c12 [Compound 8]	35.6	321.4	-14.2	lipolytic effects (non-esterified fatty acid levels) [2]: modest lipolytic effects; anabolic effects (change in serum urea nitrogen levels) [2]: significantly greater
CC(C)(Cc1ccc(Oc2ccccc2C(N)=O)cc1)NC[C@H](O)COc1cccc2[nH]ccc12 [Compound 9]	-15.4	99	-37	–
CC(C)(Cc1ccc(Oc2cccc(Cl)c2C(N)=O)cc1)NC[C@H](O)COc1cccc2[nH]ccc12 [Compound 10]	-72.7	52.7	-20.7	–
CC(C)(Cc1ccc(Oc2ccc(Cl)cc2C(N)=O)cc1)NC[C@H](O)COc1cccc2[nH]ccc12 [Compound 11]	-14.1	94	-39.4	–
Cc1c[nH]c2cccc(OC[C@@H](O)CNC(C)(C)Cc3ccc(Oc4ncccc4C(N)=O)cc3)c12 [Compound 12]	-63.7	332.6	-30.1	–
CC(C)(Cc1ccc(Oc2cccc(Cl)c2C(N)=O)cc1)NC[C@H](O)COc1cccc2[nH]c(C#N)cc12 [Compound 13]	32.1	118.1	-36.7	–
